Test results as given in patent US20020004679A1, “Topoisomerase inhibitors for prevention of restenosis” (Quanam Medical Corporation, priority 1998, published 2002).

System: coronary arteries of pigs
Test: Drug-loaded polymer stent implanted in pig coronary arteries for one month; morphometric analysis of late loss and percent stenosis
Format: in vivo, pig (Domestic Farm Swine)
Settings: overall conclusion from the pig coronary artery stent studies
Protocol: Boundaries of a selected coronary artery segment were detected automatically from optically magnified and video-digitized regions of interest. The catheter used for insertion of the stents was used as a scaling device to determine the dimensions of the artery at the site of implantation. The original vessel diameter at the time of implantation was determined.
The catheter used for insertion of the stents was used as a scaling device to determine the dimensions of the artery at the site of implantation. The original vessel diameter at the time of implantation was determined.

Q: `CC[C@@]1(O)C(=O)OCc2c1cc1n(c2=O)Cc2cc3ccccc3nc2-1` [camptothecin, Camptothecin] was tested. Which “inhibition of undesirable cell growth associated with vessel injury during coronary angioplasty and stent insertion” value did it give?
A: effective to inhibit the undesirable cell growth
